The values below come from article PMC5884524, “A high content, high throughput cellular thermal stability assay for measuring drug-target engagement in living cells” (PLoS ONE, 2018).

The target in assay [1] is T1, Chk1 (Homo sapiens, UniProt O14757).
T1 sequence (O14757 1-476): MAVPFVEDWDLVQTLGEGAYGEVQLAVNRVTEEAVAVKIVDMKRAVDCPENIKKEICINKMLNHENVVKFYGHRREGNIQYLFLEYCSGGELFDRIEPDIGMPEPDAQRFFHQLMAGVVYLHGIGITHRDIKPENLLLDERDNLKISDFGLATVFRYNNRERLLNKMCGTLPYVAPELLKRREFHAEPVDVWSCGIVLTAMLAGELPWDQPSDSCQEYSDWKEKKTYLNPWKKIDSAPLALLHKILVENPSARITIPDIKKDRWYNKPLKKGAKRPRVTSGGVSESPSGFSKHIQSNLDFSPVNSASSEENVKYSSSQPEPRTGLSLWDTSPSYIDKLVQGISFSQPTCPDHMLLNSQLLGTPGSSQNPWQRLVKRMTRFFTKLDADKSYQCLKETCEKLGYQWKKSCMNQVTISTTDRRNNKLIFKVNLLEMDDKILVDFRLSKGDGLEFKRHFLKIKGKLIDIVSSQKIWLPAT
More on the design: endogenous in cells. The settings on record: U2OS cells; read-out: CETSA classic EC50; cited from earlier work.

Assay [2] has as its target T1, Chk1. Also on record: Thermal response profile of Chk1 in HT29 cells detected by immunofluorescent imaging with the EP691Y antibody; endogenous in cells; host or cells: HT29. The note with it: HT29 cells; read-out: CETSA classic EC50; cited from earlier work.
The target of assay [3] is T1, Chk1. The experiment in a line: HCIF-CETSA (CETSA by immunofluorescence), low well volume heating, U2OS cells. The assay is classed as cell-based. The note with it: 10 min. How it is done:
10 000 cells were plated per well of a CellCarrier Ultra 96WP (6055300, Perkin Elmer) and allowed to adhere overnight. Compounds were serially diluted in DMSO to 200-times the final assay concentration then diluted 1:200 in media (without FCS). The cell media was removed and replaced with 25 μL of compound in media and incubated at 37°C, 5% CO2 for 10 minutes. The plate was sealed with an aluminum plate seal and heated by floating in a pre-heated water bath (Grant Instruments W14) for 3 minutes. 75 μL of room temperature media (without FCS or compound) was added and the plate incubated at room temperature for 5 minutes. Cells were fixed by the addition of 100 μL paraformaldehyde (7.4% in PBS) at room temperature for 15 minutes. Cells were washed 3 times with PBS and Chk1 detected with anti-Chk1 rabbit EP691Y monoclonal antibody (Ab40866, Abcam) and an AlexaFluor488 anti-rabbit secondary antibody (A-11034, Thermo Fisher Scientific). Plates were imaged on an Operetta high content imager using a 20x objective and analyzed using Harmony software.

Assay [4] concerns the target T1, Chk1. Description: Chk1 autophosphorylation (pS296) by immunoblotting and densitometry, HT29 cells. The assay is classed as cell-based. More on the design: Thermal response profile of Chk1 in HT29 cells detected by immunofluorescent imaging with the EP691Y antibody; endogenous in cells; host or cells: HT29. The settings on record: for IC50: HT29, 10 min. On the procedure: (§1) Immunoblotting was conducted as previously described.

The target of assay [5] is T1, Chk1. Description: HCIF-CETSA (CETSA by immunofluorescence), low well volume heating, HT29 cells. The assay is classed as cell-based. More on the design: Thermal response profile of Chk1 in HT29 cells detected by immunofluorescent imaging with the EP691Y antibody; endogenous in cells; host or cells: HT29. The note with it: HT29, 10 minute incubation, 50 μL media, 51°C (Fig 6D).

Assay [6] has as its target T1, Chk1. The description is as above. Type of assay: cell-based. Also on record: Thermal response profile of Chk1 in HT29 cells detected by immunofluorescent imaging with the EP691Y antibody; endogenous in cells; host or cells: HT29. The settings on record: for EC50: 25 μL media. On the procedure: Compounds were serially diluted in DMSO to 200-times the final assay concentration then diluted 1:200 in media (without FCS). The cell media was removed and replaced with 25 μL of compound in media and incubated at 37°C, 5% CO2 for 10 minutes. The plate was sealed with an aluminum plate seal and heated by floating in a pre-heated water bath (Grant Instruments W14) for 3 minutes. 75 μL of room temperature media (without FCS or compound) was added and the plate incubated at room temperature for 5 minutes. […] Plates were imaged on an Operetta high content imager using a 20x objective and analyzed using Harmony software.

In assay [7] the target is T1, Chk1. Description: Chk1 thermal stability by immunofluorescence, sealed plate submerged in water bath, HT29 cells. Type of assay: cell-based. More on the design: Thermal response profile of Chk1 in HT29 cells detected by immunofluorescent imaging with the EP691Y antibody; endogenous in cells; host or cells: HT29. The settings on record: HT29, 10 μM for 30 minutes, HU treated or untreated, sealed plate 55°C. From the text: (§2) Plates were heated as follows: (i) sealed with adhesive aluminum PCR plate foil and then floated or submerged in a water bath (Grant Instruments W14) containing water pre-heated to the desired temperature or (ii) 1 L of DPBS containing magnesium and calcium (D1283, Sigma) was placed in a clean water bath (SUB6, Grant Instruments) and heated to the required temperature. The media was removed from the wells of the CellCarrier plate and the plate submersed in the DPBS so that all wells were full of DPBS and the plate was not touching the bottom of the water bath. The plate was incubated in the DPBS for 3 minutes, removed, the hot DPBS removed and replaced with 100 μL room temperature DPBS and then incubated at room temperature for 5 minutes. In some experiments, the DPBS was substituted for live cell imaging solution (LCIS, 20 mM Hepes, 140 mM NaCl, 2.5 mM KCl, 1.8 mM CaCl2, 1.0 mM MgCl2, pH 7.4).
(§3) Single cell immunofluorescent imaging was conducted as previously described in CellCarrier 96WP or CellCarrier Ultra 96WP (6005550 or 6055300, Perkin Elmer) and imaged on an Operetta high content imager (Perkin Elmer) using a 10, 20 or 40x objective then analyzed using Harmony software (Perkin Elmer).

Assay [8] deals with T1, Chk1. The experiment in a line: Chk1 thermal stability by immunofluorescence, PBS immersion heating, HT29 cells. Type of assay: cell-based. Also on record: Thermal response profile of Chk1 in HT29 cells detected by immunofluorescent imaging with the EP691Y antibody; endogenous in cells; host or cells: HT29. The settings on record: HT29, 1–10 μM for 30 minutes, heated to 46, 49, 52 or 55°C.
Source text: as §2, §3

Assay [9] concerns the target T1, Chk1. Description: Chk1 autophosphorylation (pS296) by immunoblotting and densitometry, U2OS cells. Type of assay: cell-based. The settings on record: 10 min, identical cellular conditions to HCIF-CETSA (Fig 6E). On the procedure: as §1
The target in assay [10] is T1, Chk1. The experiment in a line: Nuclear pChk1 (S317, S345) by single cell immunofluorescence, HT29 cells. Type of assay: cell-based. The settings on record: HT29, 2.5 mM for 18 hours. Also on record: Thermal response profile of Chk1 in HT29 cells detected by immunofluorescent imaging with the EP691Y antibody; endogenous in cells; host or cells: HT29. How it is done: as §3

For assay [11], the system named is HT29 cells. The experiment in a line: S-phase arrest by Hoechst 33342 imaging, HT29 cells. The assay is classed as cell-based, human. The settings on record: HT29, 2.5 mM for 18 hours, n = 6 wells ± SD. On the procedure:
as §3

Where [12] appears, read: HT29, 0–40 μM inhibitor, 10 min, 49°C (Fig 8A), read-out: EC50, decrease in nuclear Chk1 fluorescence following heating.

Each structure is given as a SMILES string. “And” between values parts separate entries of the source, which are not always exact repeats. Equal values may be shown once. Read-outs that look alike come from different tables or passages of the source. Peptide text beside a SMILES is read from it. * marks the point of attachment. Cbz = O=C(OCc1ccccc1)*

On to `CN(C)CC(C)(C)COc1ccc2[nH]c(-c3cc(NC(=O)c4cnn(Cc5ccccc5)c4)c[nH]c3=O)cc2c1` [V158411], for which the concentration for a half-maximal effect (EC50) in [1] was 2.3 ± 1.2 µM; in [2] it was 3.3 ± 3.4 µM; in assay [3] (U2OS, 25 μL media, 49°C (Fig 6C)), 1.4 ± 0.3 µM; in assay [5], 1 µM; in assay [6] (setting [12]) it was 2 ± 0.9 µM; in assay [6] (HT29, 10 min, 49°C (Fig 6B), read-out: HCIF-CETSA EC50, mean of three independent experiments), 1.7 ± 0.4 µM. Besides, the EC50 in assay [6] (HT29, 10 min, 49°C (Fig 6B), read-out: HCIF-CETSA EC50, single values of three independent experiments) is 1.9 µM and 1.2 µM; in assay [6] (HT29, 10 min pre-incubation, heated to 46°C (Fig 6A), read-out: EC50, reduction in Chk1 nuclear immunofluorescence) it was 1.9 µM; in assay [6] (HT29, 10 min pre-incubation, heated to 49°C (Fig 6A), read-out: EC50, reduction in Chk1 nuclear immunofluorescence) it was 1.9 µM; in assay [6] (HT29, 10 min pre-incubation, heated to 52°C (Fig 6A), read-out: EC50, reduction in Chk1 nuclear immunofluorescence), 2.5 µM. Also, the “Effect on mean nuclear Chk1 fluorescence in unheated cells” value in assay [3] (unheated U2OS, 0–20 μM) is given as “increased the mean nuclear Chk1 fluorescence”. Also, the “Effect on Chk1 autophosphorylation” value in assay [4] (HT29, 0–10 μM for 30 minutes, HU treated and untreated cells (Fig 4B)) is “inhibited Chk1 autophosphorylation”. The 50% inhibitory concentration (IC50) was roughly 0.16 µM in [4] (identical cellular conditions to HCIF-CETSA (Fig 6E), read-out: IC50, Chk1 autophosphorylation (pS296)) and roughly 0.11 µM in assay [9]. Moreover, the “Effect on thermostabilization of total Chk1 or phosphorylated Chk1” value in assay [7] was “no effect”. Further, the “Effect on mean nuclear Chk1 intensity after PBS immersion heating” value in assay [8] is recorded as “did not alter the mean nuclear Chk1 intensity”.
For the molecule `CC(C)C[C@@H](C=O)NC(=O)[C@H](CC(C)C)NC(=O)[C@H](CC(C)C)NC(=O)OCc1ccccc1` [MG-132, reference compound] (Cbz-Leu-Leu-Leu-aldehyde), the “Effect on temperature induced decrease in Chk1 nuclear fluorescence” value in assay [6] (HT29, 5 μM for 2 hours, then DMSO or 3 μM V158411, 49 or 52°C) is on record as “did not block”.
As to `NC(=O)NO` [HU, Hydroxyurea], in assay [10], the “Increase in nuclear Chk1 pS317” value was 1.9 fold and the “Increase in nuclear Chk1 pS345” value came to 1.6 fold. Moreover, in assay [11], the “Cells exhibiting evidence of S-phase arrest” value is reported as 71.4 ± 0.7%.
On to `N#Cc1cc2c(cn1)[nH]c1ncc(-c3ccc(CN4CCCCC4)cc3)cc12` [GNE-900, reference compound], for which, in [4] (same dilution series and conditions as HCIF-CETSA (Fig 8B), read-out: IC50, S296 phosphorylation), the 50% inhibitory concentration (IC50) was 0.5 µM. In assay [6] (setting [12]), the 50% effective concentration (EC50) amounted to 1.3 ± 0.3 µM.
